The source of these data is PubChem BioAssay (NCI).

Where “and” joins values, the source holds several entries; their conditions need not be identical. Equal entries are not always repeated.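 Step 1: Grow cells in 96-well plates. Step 2: Expose to compound for 48 hours at 5 concentrations. Step 3: Interpolate endpoints linearly; if unreached, use highest concentration. Here, GI50 denotes the concentration required for 50% inhibition of growth. At the TGI there is no net growth.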 Calls of active or inactive are those of the source. Rule as the data show it: active = GI50 below about 0.43 µM; inactive = the rest.

The first assay concerns 786-0 renal. The assay is described as follows: NCI anticancer screen, dose series, 48 h.
Take `COc1cc(C2c3cc4c(cc3[C@@H](Nc3ccc(N(C)C)cc3)[C@H]3COC(=O)C23)OCO4)cc(OC)c1O` (stereo partly drawn): the GI50 was 0.362 µM; the TGI was 1.37 µM and 4.91 µM.

For `O=c1nc(-c2ccccc2)c2c3c(cccn13)CCC2`, the TGI was > 100 µM.

Consider `COc1ccc([C@H]2CC(=O)N3CCCC3N2)cc1` (stereo partly drawn), for which the TGI is > 100 µM.

As to `O=C(CCc1nc(=S)[nH][nH]1)NC12CC3CC(CC(C3)C1)C2`, the TGI is > 100 µM.

`CSc1ccc(/C=C2\CNC/C(=C\c3ccc(SC)cc3)C2=O)cc1` had a TGI of 153 µM.

In the case of `CSc1nc2c(c(O)c(C)c(=O)n2C2OC(COC(C)=O)C(OC(C)=O)C(OC(C)=O)C2OC(C)=O)c(=O)n1C` (stereo not drawn), the TGI is > 100 µM.

Turning to `Cc1nc2c(n1CC(C)(C)C)C(=O)c1ccccc1C2=O`, the TGI is > 100 µM.

The next assay relates to DLD-1 colon. The assay is described as follows: NCI anticancer screen, dose series, 48 h.
Regarding `COc1cc(C2c3cc4c(cc3[C@@H](Nc3ccc(N(C)C)cc3)[C@H]3COC(=O)C23)OCO4)cc(OC)c1O` (stereo partly drawn), the GI50 is 2.19 µM; the TGI was 9.22 µM and 12.4 µM.

Consider `O=c1nc(-c2ccccc2)c2c3c(cccn13)CCC2`, for which the TGI is > 100 µM.

For `COc1ccc([C@H]2CC(=O)N3CCCC3N2)cc1` (stereo partly drawn), the TGI was > 100 µM.

For `O=C(CCc1nc(=S)[nH][nH]1)NC12CC3CC(CC(C3)C1)C2`, the TGI is > 100 µM.

`CSc1ccc(/C=C2\CNC/C(=C\c3ccc(SC)cc3)C2=O)cc1`: the GI50 is 45.1 µM and 142 µg/mL; the TGI was > 371 µM and 150 µg/mL.

As to `CSc1nc2c(c(O)c(C)c(=O)n2C2OC(COC(C)=O)C(OC(C)=O)C(OC(C)=O)C2OC(C)=O)c(=O)n1C` (stereo not drawn), the TGI is > 100 µM.

`Cc1nc2c(n1CC(C)(C)C)C(=O)c1ccccc1C2=O`: the TGI was > 100 µM.

A further assay deals with HOP-92 NSCLC. The assay is described as follows: NCI anticancer screen, dose series, 48 h.
For `COc1cc(C2c3cc4c(cc3[C@@H](Nc3ccc(N(C)C)cc3)[C@H]3COC(=O)C23)OCO4)cc(OC)c1O` (stereo partly drawn), the GI50 was 0.807 µM; the TGI is 11.4 µM and 17 µM.

For `O=c1nc(-c2ccccc2)c2c3c(cccn13)CCC2`, the TGI is > 100 µM.

For `COc1ccc([C@H]2CC(=O)N3CCCC3N2)cc1` (stereo partly drawn), the TGI is > 100 µM.

Regarding `O=C(CCc1nc(=S)[nH][nH]1)NC12CC3CC(CC(C3)C1)C2`, the TGI was > 100 µM.

With `CSc1ccc(/C=C2\CNC/C(=C\c3ccc(SC)cc3)C2=O)cc1`, the GI50 was 31.9 µM and 27 µg/mL; the TGI is 233 µM and 83.2 µg/mL.

For `CSc1nc2c(c(O)c(C)c(=O)n2C2OC(COC(C)=O)C(OC(C)=O)C(OC(C)=O)C2OC(C)=O)c(=O)n1C` (stereo not drawn), the TGI is > 100 µM.

As for `Cc1nc2c(n1CC(C)(C)C)C(=O)c1ccccc1C2=O`, the TGI is > 100 µM.

In another assay the test system is HT29 colon. As to the kind of experiment: NCI anticancer screen, dose series, 48 h.
`COc1cc(C2c3cc4c(cc3[C@@H](Nc3ccc(N(C)C)cc3)[C@H]3COC(=O)C23)OCO4)cc(OC)c1O` (stereo partly drawn): the GI50 was 2.46 µM; the TGI was 4.64 µM and 11.3 µM.

Consider `O=c1nc(-c2ccccc2)c2c3c(cccn13)CCC2`, for which the TGI is > 100 µM.

For the compound `COc1ccc([C@H]2CC(=O)N3CCCC3N2)cc1` (stereo partly drawn), the TGI is > 100 µM.

Take `O=C(CCc1nc(=S)[nH][nH]1)NC12CC3CC(CC(C3)C1)C2`: the TGI was > 100 µM.

Regarding `CSc1ccc(/C=C2\CNC/C(=C\c3ccc(SC)cc3)C2=O)cc1`, the GI50 was 150 µg/mL; the TGI was > 117 µM and 150 µg/mL.

For `CSc1nc2c(c(O)c(C)c(=O)n2C2OC(COC(C)=O)C(OC(C)=O)C(OC(C)=O)C2OC(C)=O)c(=O)n1C` (stereo not drawn), the TGI is > 100 µM.

Take `Cc1nc2c(n1CC(C)(C)C)C(=O)c1ccccc1C2=O`: the TGI is > 100 µM.

In another assay the test system is M14 melanoma. The assay is described as follows: NCI anticancer screen, dose series, 48 h.
In the case of `COc1cc(C2c3cc4c(cc3[C@@H](Nc3ccc(N(C)C)cc3)[C@H]3COC(=O)C23)OCO4)cc(OC)c1O` (stereo partly drawn), the GI50 was 1.44 µM; the TGI was 8.61 µM and 16.2 µM.

In the case of `O=c1nc(-c2ccccc2)c2c3c(cccn13)CCC2`, the TGI was > 100 µM.

Consider `COc1ccc([C@H]2CC(=O)N3CCCC3N2)cc1` (stereo partly drawn), for which the TGI is > 100 µM.

Consider `O=C(CCc1nc(=S)[nH][nH]1)NC12CC3CC(CC(C3)C1)C2`, for which the TGI is > 100 µM.

With `CSc1ccc(/C=C2\CNC/C(=C\c3ccc(SC)cc3)C2=O)cc1`, the TGI is > 371 µM.

On to `CSc1nc2c(c(O)c(C)c(=O)n2C2OC(COC(C)=O)C(OC(C)=O)C(OC(C)=O)C2OC(C)=O)c(=O)n1C` (stereo not drawn), for which the TGI was > 100 µM.

Consider `Cc1nc2c(n1CC(C)(C)C)C(=O)c1ccccc1C2=O`, for which the TGI was > 100 µM.

The next assay relates to OVCAR-8 ovarian. The assay is described as follows: NCI anticancer screen, dose series, 48 h.
Turning to `COc1cc(C2c3cc4c(cc3[C@@H](Nc3ccc(N(C)C)cc3)[C@H]3COC(=O)C23)OCO4)cc(OC)c1O` (stereo partly drawn), the GI50 is 1.78 µM; the TGI is 7.97 µM and 24.9 µM.

For the compound `O=c1nc(-c2ccccc2)c2c3c(cccn13)CCC2`, the TGI was > 100 µM.

For `COc1ccc([C@H]2CC(=O)N3CCCC3N2)cc1` (stereo partly drawn), the TGI is > 100 µM.

Turning to `O=C(CCc1nc(=S)[nH][nH]1)NC12CC3CC(CC(C3)C1)C2`, the TGI is > 100 µM.

As to `CSc1ccc(/C=C2\CNC/C(=C\c3ccc(SC)cc3)C2=O)cc1`, the GI50 was 116 µg/mL; the TGI is > 102 µM and 150 µg/mL.

`CSc1nc2c(c(O)c(C)c(=O)n2C2OC(COC(C)=O)C(OC(C)=O)C(OC(C)=O)C2OC(C)=O)c(=O)n1C` (stereo not drawn): the TGI is > 100 µM.

As for `Cc1nc2c(n1CC(C)(C)C)C(=O)c1ccccc1C2=O`, the TGI was > 100 µM.

A further assay concerns RXF 393 renal. As to the kind of experiment: NCI anticancer screen, dose series, 48 h.
`COc1cc(C2c3cc4c(cc3[C@@H](Nc3ccc(N(C)C)cc3)[C@H]3COC(=O)C23)OCO4)cc(OC)c1O` (stereo partly drawn) had a TGI of 4.33 µM.

Take `O=c1nc(-c2ccccc2)c2c3c(cccn13)CCC2`: the TGI is > 100 µM.

Turning to `COc1ccc([C@H]2CC(=O)N3CCCC3N2)cc1` (stereo partly drawn), the TGI was > 100 µM.

Regarding `O=C(CCc1nc(=S)[nH][nH]1)NC12CC3CC(CC(C3)C1)C2`, the TGI is > 100 µM.

As for `CSc1ccc(/C=C2\CNC/C(=C\c3ccc(SC)cc3)C2=O)cc1`, the GI50 was 74 µM and 10.8 µg/mL; the TGI is 81.1 µM and 34.2 µg/mL.

Turning to `CSc1nc2c(c(O)c(C)c(=O)n2C2OC(COC(C)=O)C(OC(C)=O)C(OC(C)=O)C2OC(C)=O)c(=O)n1C` (stereo not drawn), the TGI was > 100 µM.

With `Cc1nc2c(n1CC(C)(C)C)C(=O)c1ccccc1C2=O`, the TGI was > 100 µM.

For a further assay, the system named is SK-MEL-2 melanoma. As to the kind of experiment: NCI anticancer screen, dose series, 48 h.
For `COc1cc(C2c3cc4c(cc3[C@@H](Nc3ccc(N(C)C)cc3)[C@H]3COC(=O)C23)OCO4)cc(OC)c1O` (stereo partly drawn), the GI50 is 3.58 µM; the TGI is 9.12 µM and 12 µM.

For `O=c1nc(-c2ccccc2)c2c3c(cccn13)CCC2`, the TGI was > 100 µM.

As to `COc1ccc([C@H]2CC(=O)N3CCCC3N2)cc1` (stereo partly drawn), the TGI is > 100 µM.

Take `O=C(CCc1nc(=S)[nH][nH]1)NC12CC3CC(CC(C3)C1)C2`: the TGI was > 100 µM.

For `CSc1ccc(/C=C2\CNC/C(=C\c3ccc(SC)cc3)C2=O)cc1`, the GI50 was 150 µg/mL; the TGI is > 371 µM and 150 µg/mL.

Turning to `CSc1nc2c(c(O)c(C)c(=O)n2C2OC(COC(C)=O)C(OC(C)=O)C(OC(C)=O)C2OC(C)=O)c(=O)n1C` (stereo not drawn), the TGI is > 100 µM.

Consider `Cc1nc2c(n1CC(C)(C)C)C(=O)c1ccccc1C2=O`, for which the TGI is > 100 µM.

Another assay has as its system XF 498 CNS. The assay is described as follows: NCI anticancer screen, dose series, 48 h.
As to `COc1cc(C2c3cc4c(cc3[C@@H](Nc3ccc(N(C)C)cc3)[C@H]3COC(=O)C23)OCO4)cc(OC)c1O` (stereo partly drawn), the GI50 was 2.27 µM; the TGI is 10.9 µM and 13.3 µM.

For `O=c1nc(-c2ccccc2)c2c3c(cccn13)CCC2`, the TGI was > 100 µM.

With `COc1ccc([C@H]2CC(=O)N3CCCC3N2)cc1` (stereo partly drawn), the TGI was > 100 µM.

`O=C(CCc1nc(=S)[nH][nH]1)NC12CC3CC(CC(C3)C1)C2`: the TGI was > 100 µM.

For the compound `CSc1ccc(/C=C2\CNC/C(=C\c3ccc(SC)cc3)C2=O)cc1`, the TGI amounted to 16.8 µM and the outcome was inactive.

As for `CSc1nc2c(c(O)c(C)c(=O)n2C2OC(COC(C)=O)C(OC(C)=O)C(OC(C)=O)C2OC(C)=O)c(=O)n1C` (stereo not drawn), the TGI is > 100 µM.

Take `Cc1nc2c(n1CC(C)(C)C)C(=O)c1ccccc1C2=O`: the TGI is > 100 µM.
